Activity calls are given as the source filed them. No cut-off for these calls is given here.
Experiments:
[1] = system: Influenza A virus; test: Antiviral activity against influenza A virus (H3N2)-induced cytopathogenicity in MDCK cells by MTS method; format: functional, organism-based
[2] = system: MDCK; test: Cytotoxicity against MDCK cells; format: cell-based, Canis lupus familiaris; settings: dog
[3] = system: Influenza A virus; test: Antiviral activity against influenza A virus (H3N2) assessed as inhibition of viral replication; format: functional, organism-based
[4] = system: Influenza B virus; test: Antiviral activity against influenza B virus; format: functional, organism-based

Structure (SMILES)	EC50 [1] [µM]	MTC [2] [µM]	Activity [3]	Activity [4]
C1CNC(C23CC4CC(CC(C4)C2)C3)CN1.O=C(O)/C=C\C(=O)O (stereo not drawn)	24.1	> 553	Active	inactive
CN1CC(=O)NCC1C12CC3CC(CC(C3)C1)C2 (stereo not drawn)	604	> 1007		inactive
O=C1NCC(C23CC4CC(CC(C4)C2)C3)N1 (stereo not drawn)	72.6	> 1135	Active	inactive
NCC(N)C12CC3CC(CC(C3)C1)C2.O=C(O)/C=C\C(=O)O (stereo not drawn)	18.3	> 586	Active	inactive
CC(N)C12CC3CC(CC(C3)C1)C2.Cl (stereo not drawn) [RIMANTADINE HYDROCHLORIDE]	19.1	> 1160		
Cl.NC12CC3CC(CC(C3)C1)C2 [AMANTADINE HYDROCHLORIDE]	49.1	> 1333		
C1CCC(C23CC4CC(CC(C4)C2)C3)NC1.Cl (stereo not drawn)	70.5	978		
CN1CCN(C)C(C23CC4CC(CC(C4)C2)C3)C1.O=C(O)/C=C\C(=O)O (stereo not drawn)	351	> 520		inactive
CNC(CN)C12CC3CC(CC(C3)C1)C2.O=C(O)/C=C\C(=O)O (stereo not drawn)	56.8	> 568	Active	inactive
CN1CC(C23CC4CC(CC(C4)C2)C3)N(C)C1=O (stereo not drawn)	107	1007		inactive
CN1C(=O)NCC1C12CC3CC(CC(C3)C1)C2 (stereo not drawn)	269	> 1067		inactive
O=C1CNC(C23CC4CC(CC(C4)C2)C3)CN1 (stereo not drawn)	91.8	> 1067	Active	inactive
CN1CCNCC1C12CC3CC(CC(C3)C1)C2.O=C(O)/C=C\C(=O)O (stereo not drawn)	197	> 535		inactive
C1CNC(C23CC4CC(CC(C4)C2)C3)C1.Cl (stereo not drawn)	51.3	1035		
